Converted amounts (≈) assume the structure as drawn. Positions of bridges follow the written chain, without caps; N, C: chain ends. Non-standard residues stand in square brackets, D forms with d. Residues, ends and D or L forms follow the SMILES beside them. Groups on a side chain read outwards from the residue. *: point of attachment. Palmitoyl(16-(5-tetrazolyl)) = O=C(CCCCCCCCCCCCCCCc1nnn[nH]1)*; Lys(CH2CO2H)2 = N[C@@H](CCCCN(CC(=O)O)CC(=O)O)C(=O)O; C18 diacid = O=C(O)CCCCCCCCCCCCCCCCC(=O)*; C16 diacid = O=C(O)CCCCCCCCCCCCCCC(=O)*; hCys = N[C@@H](CCS)C(=O)O; Orn = NCCC[C@H](N)C(=O)O; Dab = NCC[C@H](N)C(=O)O; Dap = NC[C@H](N)C(=O)O; AEEA = NCCOCCOCC(=O)O
Test: physchem
Experimental: From a stock solution in vehicle, either H2O or 10 mM phosphate, containing 1 mg (as weighed) compound per ml, 8-11 aliquots are withdrawn and pH-adjusted individually with HCl/NaOH, to cover the whole pH range.

Work on `CC(=O)N[C@H]1CC(=O)NCC[C@@H](C(=O)N2CCC[C@H]2C(=O)N2CCC[C@H]2C(=O)N[C@@H](CCCNC(=N)N)C(=O)N[C@@H](CC(=O)O)C(=O)N[C@@H](CCCCN(CC(=O)O)CC(=O)O)C(=O)N[C@@H](CCCCNC(=O)COCCOCCNC(=O)CCCCCCCCCCCCCCCc2nnn[nH]2)C(N)=O)NC(=O)[C@H](Cc2c[nH]c3ccccc23)NC(=O)[C@H](CCCNC(=N)N)NC(=O)[C@@H](Cc2ccccc2)NC(=O)[C@H](Cc2c[nH]cn2)NC1=O` [Example 30, Ac-c[Asp-His-D-Phe-Arg-Trp-Dab]-Pro-Pro-Arg-Asp-Lys(biscarboxymethyl)-Lys[(2-{2-[16-(tetrazol-5-yl)hexadecanoylamino]ethoxy}ethoxy)acetyl]-NH2] (Ac-DH[dF]RW[Dab]PPRD[Lys(CH2CO2H)2]K([AEEA-Palmitoyl(16-(5-tetrazolyl))])-NH2; lactam 1-6) yielded a solubility (pH 5.9, Solubility Conc.) of 24 µM (≈ 52.1 µg/mL), a solubility (pH 6.4, Solubility Conc.) of 37 µM (≈ 80.4 µg/mL) and a solubility (pH 7, Solubility Conc.) of 144 µM (≈ 313 µg/mL). The solubility (pH 7.3, Solubility Conc.) was 377 µM (≈ 819 µg/mL), the solubility (pH 7.5, Solubility Conc.) was 478 µM (≈ 1040 µg/mL) and the solubility (pH 7.6, Solubility Conc.) was 493 µM (≈ 1070 µg/mL). The solubility (pH 7.9, Solubility Conc.) was 497 µM (≈ 1080 µg/mL).
For `CC(=O)N[C@H]1CCC(=O)NCCC[C@@H](C(=O)N2CCC[C@H]2C(=O)N2CCC[C@H]2C(=O)N[C@@H](Cc2c[nH]cn2)C(=O)N[C@@H](CC(=O)O)C(=O)N[C@@H](CCCCN(CC(=O)O)CC(=O)O)C(=O)N[C@@H](CCCCNC(=O)COCCOCCNC(=O)CCCCCCCCCCCCCCCc2nnn[nH]2)C(N)=O)NC(=O)[C@H](Cc2c[nH]c3ccccc23)NC(=O)[C@H](CCCNC(=N)N)NC(=O)[C@@H](Cc2ccccc2)NC(=O)[C@H](Cc2c[nH]cn2)NC1=O` [Example 43, Ac-c[Glu-His-D-Phe-Arg-Trp-Orn]-Pro-Pro-His-Asp-Lys(biscarboxymethyl)-Lys[(2-{2-[16-(tetrazol-5-yl)hexadecanoylamino]ethoxy}ethoxy)acetyl]-NH2] (Ac-EH[dF]RW[Orn]PPHD[Lys(CH2CO2H)2]K([AEEA-Palmitoyl(16-(5-tetrazolyl))])-NH2; lactam 1-6), the solubility (pH 5.9, Solubility Conc.) was 27 µM (≈ 58.9 µg/mL), the solubility (pH 6.5, Solubility Conc.) was 75 µM (≈ 164 µg/mL) and the solubility (pH 6.7, Solubility Conc.) was 315 µM (≈ 687 µg/mL). For the same compound, the solubility (pH 6.8, Solubility Conc.) was 478 µM (≈ 1040 µg/mL), the solubility (pH 7.2, Solubility Conc.) was 478 µM (≈ 1040 µg/mL) and the solubility (pH 7.4, Solubility Conc.) was 506 µM (≈ 1100 µg/mL). The solubility (pH 7.7, Solubility Conc.) was 487 µM (≈ 1060 µg/mL), the solubility (pH 7.9, Solubility Conc.) was 490 µM (≈ 1070 µg/mL) and the solubility (pH 8.1, Solubility Conc.) was 493 µM (≈ 1080 µg/mL).
`CC(=O)N[C@H]1CCCNC(=O)C[C@@H](C(=O)N2CCC[C@H]2C(=O)N2CCC[C@H]2C(=O)N[C@@H](CCCNC(=N)N)C(=O)N[C@@H](CCC(=O)O)C(=O)N[C@@H](CCCCN(CC(=O)O)CC(=O)O)C(=O)N[C@@H](CCCCNC(=O)COCCOCCNC(=O)CCCCCCCCCCCCCCC(=O)O)C(N)=O)NC(=O)[C@H](Cc2c[nH]c3ccccc23)NC(=O)[C@H](CCCNC(=N)N)NC(=O)[C@@H](Cc2ccccc2)NC(=O)[C@H](Cc2c[nH]cn2)NC1=O` [Example 42, Ac-c[Orn-His-D-Phe-Arg-Trp-Asp]-Pro-Pro-Arg-Glu-Lys(biscarboxymethyl)-Lys({2-[2-(15-carboxypentadecanoylamino)ethoxy]ethoxy}acetyl)-NH2] (Ac-[Orn]H[dF]RWDPPRE[Lys(CH2CO2H)2]K([AEEA-C16 diacid])-NH2; lactam 1-6) gave a solubility (pH 4.9, Solubility Conc.) of 153 µM (≈ 331 µg/mL), a solubility (pH 5.8, Solubility Conc.) of 240 µM (≈ 519 µg/mL) and a solubility (pH 6.4, Solubility Conc.) of 364 µM (≈ 787 µg/mL). It also gave a solubility (pH 6.7, Solubility Conc.) of 421 µM (≈ 910 µg/mL), a solubility (pH 7, Solubility Conc.) of 449 µM (≈ 971 µg/mL) and a solubility (pH 7.2, Solubility Conc.) of 438 µM (≈ 947 µg/mL). It also gave a solubility (pH 7.5, Solubility Conc.) of 441 µM (≈ 954 µg/mL), a solubility (pH 7.9, Solubility Conc.) of 476 µM (≈ 1030 µg/mL) and a solubility (pH 8.1, Solubility Conc.) of 417 µM (≈ 902 µg/mL).
For `CC(=O)N[C@H]1CNC(=O)CC[C@@H](C(=O)N2CCC[C@H]2C(=O)N2CCC[C@H]2C(=O)N[C@@H](CCCNC(=N)N)C(=O)N[C@@H](CC(=O)O)C(=O)N[C@@H](CCCCN(CC(=O)O)CC(=O)O)C(=O)N[C@@H](CCCCNC(=O)COCCOCCNC(=O)CCCCCCCCCCCCCCCc2nnn[nH]2)C(N)=O)NC(=O)[C@H](Cc2c[nH]c3ccccc23)NC(=O)[C@H](CCCNC(=N)N)NC(=O)[C@@H](Cc2ccccc2)NC(=O)[C@H](Cc2c[nH]cn2)NC1=O` [Example 47, Ac-c[Dap-His-D-Phe-Arg-Trp-Glu]-Pro-Pro-Arg-Asp-Lys(biscarboxymethyl)-Lys[(2-{2-[16-(tetrazol-5-yl)hexadecanoylamino]ethoxy}ethoxy)acetyl]-NH2] (Ac-[Dap]H[dF]RWEPPRD[Lys(CH2CO2H)2]K([AEEA-Palmitoyl(16-(5-tetrazolyl))])-NH2; lactam 1-6), the solubility (pH 6.4, Solubility Conc.) was 24 µM (≈ 52.1 µg/mL), the solubility (pH 6.9, Solubility Conc.) was 56 µM (≈ 122 µg/mL) and the solubility (pH 7.1, Solubility Conc.) was 103 µM (≈ 224 µg/mL). The solubility (pH 7.2, Solubility Conc.) was 219 µM (≈ 476 µg/mL), the solubility (pH 7.3, Solubility Conc.) was 366 µM (≈ 795 µg/mL) and the solubility (pH 7.5, Solubility Conc.) was 379 µM (≈ 823 µg/mL). The solubility (pH 7.6, Solubility Conc.) was 371 µM (≈ 806 µg/mL) and the solubility (pH 7.9, Solubility Conc.) was 493 µM (≈ 1070 µg/mL).
For `CC(=O)N[C@H]1CCSSC[C@@H](C(=O)N[C@@H](CO)C(=O)N2CCC[C@H]2C(=O)N[C@@H](Cc2c[nH]cn2)C(=O)N[C@@H](CCC(=O)O)C(=O)N[C@@H](CCCCN(CC(=O)O)CC(=O)O)C(=O)N[C@@H](CCCCNC(=O)COCCOCCNC(=O)CCCCCCCCCCCCCCCCC(=O)O)C(N)=O)NC(=O)[C@H](Cc2c[nH]c3ccccc23)NC(=O)[C@H](CCCNC(=N)N)NC(=O)[C@@H](Cc2ccccc2)NC(=O)[C@H](Cc2c[nH]cn2)NC1=O` [Example 62, Ac-c[homoCys-His-D-Phe-Arg-Trp-Cys]-Ser-Pro-His-Glu-Lys(biscarboxymethyl)-Lys({2-[2-(17-carboxyheptadecanoylamino)ethoxy]ethoxy}acetyl)-NH2] (Ac-[hCys]H[dF]RWCSPHE[Lys(CH2CO2H)2]K([AEEA-C18 diacid])-NH2; disulfide 1-6), the solubility (pH 3.4, Solubility Conc.) was 235 µM (≈ 510 µg/mL), the solubility (pH 5, Solubility Conc.) was 15 µM (≈ 32.5 µg/mL) and the solubility (pH 6.7, Solubility Conc.) was 41 µM (≈ 88.9 µg/mL). It also gave a solubility (pH 6.9, Solubility Conc.) of 82 µM (≈ 178 µg/mL), a solubility (pH 7, Solubility Conc.) of 42 µM (≈ 91.1 µg/mL) and a solubility (pH 7.3, Solubility Conc.) of 241 µM (≈ 523 µg/mL). For the same compound, the solubility (pH 7.4, Solubility Conc.) was 243 µM (≈ 527 µg/mL), the solubility (pH 7.7, Solubility Conc.) was 251 µM (≈ 544 µg/mL) and the solubility (pH 7.9, Solubility Conc.) was 245 µM (≈ 531 µg/mL). For the same compound, the solubility (pH 8, Solubility Conc.) was 233 µM (≈ 505 µg/mL).
Compound `CC(=O)N[C@H]1CSSC[C@@H](C(=O)N2CCC[C@H]2C(=O)N2CCC[C@H]2C(=O)N[C@@H](CCCCN)C(=O)N[C@@H](CCC(=O)O)C(=O)N[C@@H](CCC(=O)O)C(=O)N[C@@H](CCCCNC(=O)COCCOCCNC(=O)CCCCCCCCCCCCCCC(=O)O)C(N)=O)NC(=O)CNC(=O)[C@H](Cc2c[nH]c3ccccc23)NC(=O)[C@H](CCCNC(=N)N)NC(=O)[C@@H](Cc2ccccc2)NC(=O)[C@H](Cc2c[nH]cn2)NC(=O)[C@H](CCC(=O)O)NC1=O` [Example 68, Ac-c[Cys-Glu-His-D-Phe-Arg-Trp-Gly-Cys]-Pro-Pro-Lys-Glu-Glu-Lys({2-[2-(15-carboxypentadecanoylamino)ethoxy]ethoxy}acetyl)-NH2] (Ac-CEH[dF]RWGCPPKEEK([AEEA-C16 diacid])-NH2; disulfide 1-8) has a solubility (pH 4, Solubility Conc.) of 167 µM (≈ 367 µg/mL), a solubility (pH 5.1, Solubility Conc.) of 87 µM (≈ 191 µg/mL) and a solubility (pH 5.8, Solubility Conc.) of 102 µM (≈ 224 µg/mL). It also gave a solubility (pH 6.2, Solubility Conc.) of 164 µM (≈ 361 µg/mL), a solubility (pH 6.9, Solubility Conc.) of 182 µM (≈ 400 µg/mL) and a solubility (pH 7.3, Solubility Conc.) of 181 µM (≈ 398 µg/mL). The solubility (pH 7.5, Solubility Conc.) was 184 µM (≈ 405 µg/mL), the solubility (pH 7.9, Solubility Conc.) was 188 µM (≈ 413 µg/mL) and the solubility (pH 8, Solubility Conc.) was 183 µM (≈ 402 µg/mL).
